Measurements reported in PubChem BioAssay (NCI).
Values joined by “and” are separate entries in the source; they are usually repeats but may differ in a detail not shown here. Equal entries are not always repeated.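 How tested: cells in 96-well plates exposed to compound for 48 hours at five concentrations. The concentration for 50% growth inhibition is given as GI50. TGI denotes the concentration required for complete inhibition of growth.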

Legend:
Test in all cases: NCI-60 cell line screen, 48 h
[1] = tested on: CAKI-1 renal
[2] = tested on: SN12C renal
[3] = tested on: IGROV1 ovarian
[4] = tested on: MALME-3M melanoma
[5] = tested on: BT-549 breast
[6] = tested on: SNB-75 CNS
[7] = tested on: HCC-2998 colon
[8] = tested on: MOLT-4 leukemia
[9] = tested on: OVCAR-8 ovarian
[10] = tested on: KM12 colon
[11] = tested on: HL-60(TB) leukemia
[12] = tested on: M14 melanoma
[13] = tested on: A549 NSCLC
[14] = tested on: SW-620 colon
[15] = tested on: MDA-N
[16] = tested on: UACC-62 melanoma
[17] = tested on: EKVX NSCLC
[18] = tested on: UO-31 renal
[19] = tested on: NCI-H460 lung
[20] = tested on: TK-10 renal
[21] = tested on: RPMI-8226 leukemia
[22] = tested on: U251 CNS
[23] = tested on: SK-MEL-28 melanoma
[24] = tested on: NCI-H522 lung
[25] = tested on: HS 578T breast
[26] = tested on: ACHN renal
[27] = tested on: RXF 393 renal
[28] = tested on: CCRF-CEM leukemia
[29] = tested on: A498 renal
[30] = tested on: HCT-15 colon
[31] = tested on: SK-MEL-2 melanoma
[32] = tested on: HOP-92 NSCLC
[33] = tested on: HCT-116 colon
[34] = tested on: NCI-H226 lung
[35] = tested on: SK-MEL-5 melanoma
[36] = tested on: MDA-MB-231 breast
[37] = tested on: PC-3 prostate
[38] = tested on: HOP-62 NSCLC
[39] = tested on: OVCAR-3 ovarian
[40] = tested on: SNB-19 CNS
[41] = tested on: MCF7 breast
[42] = tested on: K-562 leukemia
[43] = tested on: COLO 205 colon
[44] = tested on: SF-268 CNS
[45] = tested on: SR leukemia
[46] = tested on: HT29 colon
[47] = tested on: SF-295 CNS
[48] = tested on: SF-539 CNS
[49] = tested on: 786-0 renal
[50] = tested on: UACC-257 melanoma
[51] = tested on: MDA-MB-435
[52] = tested on: SK-OV-3 ovarian
[53] = tested on: NCI/ADR-RES ovarian
[54] = tested on: OVCAR-5 ovarian
[55] = tested on: OVCAR-4 ovarian
[56] = tested on: T-47D breast
[57] = tested on: LOX IMVI melanoma
[58] = tested on: DU-145 prostate
[59] = tested on: NCI-H23 lung

O=CN1CCN(C(=O)c2ccco2)C1=S was tested. Which TGI [1] did it give?
The TGI was 18.5 µM.

What about the TGI [2] of the same compound?
The TGI was 15.8 µM.

What about the TGI [3] of the same compound?
Its TGI is 25.3 µM.

And the TGI [4]?
Its TGI is 29.9 µM.

And the TGI [5]?
Its TGI is 16.8 µM.

What about the TGI [6] of the same compound?
Its TGI is 34.8 µM.

And the GI50 [7]?
The GI50 was 13.4 µM.

What about the TGI [7] of the same compound?
Its TGI is 27.2 µM.

And the TGI [8]?
Its TGI is 35 µM.

And the TGI [9]?
Its TGI is 59 µM.

And the TGI [10]?
Its TGI is 20.1 µM.

And the TGI [11]?
Its TGI is 8.94 µM.

And the TGI [12]?
The TGI was 24.1 µM.

And the TGI [13]?
Its TGI is 26.9 µM.

And the TGI [14]?
Its TGI is greater than 46.5 µM.

And the TGI [15]?
The TGI was 24.7 µM.

What about the TGI [16] of the same compound?
Its TGI is 20.7 µM.

What about the TGI [17] of the same compound?
The TGI was 41.3 µM.

And the TGI [18]?
The TGI was 13.8 µM.

And the TGI [19]?
The TGI was 42.1 µM.

And the TGI [20]?
Its TGI is 31 µM.

What about the TGI [21] of the same compound?
The TGI was 8.96 µM.

What about the TGI [22] of the same compound?
Its TGI is 32.5 µM.

And the TGI [23]?
Its TGI is greater than 57.6 µM.

And the TGI [24]?
Its TGI is 17.4 µM.

And the TGI [25]?
Its TGI is greater than 100 µM.

And the TGI [26]?
The TGI was 24 µM.

What about the TGI [27] of the same compound?
The TGI was 20.1 µM.

And the TGI [28]?
The TGI was greater than 37.1 µM.

What about the TGI [29] of the same compound?
The TGI was 39.7 µM.

And the TGI [30]?
The TGI was 25.7 µM.

And the TGI [31]?
The TGI was 40.6 µM.

What about the TGI [32] of the same compound?
Its TGI is 18.7 µM.

And the TGI [33]?
The TGI was 24.5 µM.

What about the TGI [34] of the same compound?
The TGI was 54.8 µM.

And the TGI [35]?
The TGI was 29.1 µM.

What about the TGI [36] of the same compound?
The TGI was 33.9 µM.

And the TGI [37]?
Its TGI is 23 µM.

What about the TGI [38] of the same compound?
Its TGI is 36.2 µM.

What about the TGI [39] of the same compound?
The TGI was 15.4 µM.

And the TGI [40]?
The TGI was greater than 70.6 µM.

And the TGI [41]?
The TGI was 10.6 µM.

And the TGI [42]?
Its TGI is 29.5 µM.

And the TGI [43]?
The TGI was 24.4 µM.

And the TGI [44]?
Its TGI is 28.8 µM.

And the TGI [45]?
Its TGI is 9.25 µM.

And the TGI [46]?
Its TGI is 26.2 µM.

And the TGI [47]?
Its TGI is 51.1 µM.

And the TGI [48]?
Its TGI is 22.8 µM.

What about the TGI [49] of the same compound?
The TGI was 12.6 µM.

And the TGI [50]?
The TGI was 33 µM.

What about the TGI [51] of the same compound?
Its TGI is 19.7 µM.

What about the TGI [52] of the same compound?
The TGI was 70.8 µM.

And the TGI [53]?
The TGI was 75.3 µM.

And the TGI [54]?
Its TGI is 37.7 µM.

And the TGI [55]?
The TGI was 46.6 µM.

And the TGI [56]?
Its TGI is 19.3 µM.

And the TGI [57]?
Its TGI is 14.8 µM.

What about the TGI [58] of the same compound?
Its TGI is 11.6 µM.

What about the TGI [59] of the same compound?
The TGI was 40.4 µM.

How did the TGI [2] turn out when COc1ccc(C2Oc3c(OC)cc(CCCO)cc3C2CO)cc1OC (stereo not given) was run?
Its TGI is greater than 100 µM.

What about the TGI [3] of the same compound?
The TGI was greater than 100 µM.

What about the TGI [4] of the same compound?
Its TGI is greater than 100 µM.

What about the TGI [5] of the same compound?
Its TGI is greater than 100 µM.

And the TGI [6]?
Its TGI is greater than 100 µM.

What about the TGI [7] of the same compound?
Its TGI is greater than 100 µM.

What about the TGI [8] of the same compound?
Its TGI is 96.7 µM and > 100 µM.

And the TGI [9]?
Its TGI is greater than 100 µM.

And the TGI [10]?
The TGI was greater than 100 µM.

And the TGI [11]?
The TGI was greater than 100 µM.

What about the TGI [12] of the same compound?
Its TGI is greater than 100 µM.

What about the TGI [13] of the same compound?
Its TGI is greater than 100 µM.

What about the TGI [14] of the same compound?
Its TGI is greater than 100 µM.

And the TGI [15]?
The TGI was greater than 100 µM.

And the TGI [16]?
The TGI was greater than 100 µM.

What about the TGI [17] of the same compound?
Its TGI is greater than 100 µM.

What about the GI50 [18] of the same compound?
Its GI50 is 38.9 µM and > 100 µM.

And the TGI [18]?
The TGI was greater than 100 µM.

What about the TGI [19] of the same compound?
Its TGI is greater than 100 µM.

What about the TGI [20] of the same compound?
Its TGI is greater than 100 µM.

What about the TGI [21] of the same compound?
The TGI was 60.4 µM and > 100 µM.

What about the TGI [22] of the same compound?
The TGI was greater than 100 µM.

And the TGI [23]?
The TGI was greater than 100 µM.

And the TGI [24]?
Its TGI is greater than 100 µM.

And the TGI [25]?
Its TGI is greater than 100 µM.

And the TGI [26]?
The TGI was greater than 100 µM.

And the TGI [27]?
The TGI was greater than 100 µM.

What about the GI50 [28] of the same compound?
Its GI50 is 37.9 µM and > 100 µM.

What about the TGI [28] of the same compound?
Its TGI is greater than 100 µM.

What about the GI50 [29] of the same compound?
The GI50 was 26.1 µM and 73.4 µM.

And the TGI [29]?
Its TGI is 88 µM and > 100 µM.

And the TGI [30]?
Its TGI is greater than 100 µM.

What about the TGI [31] of the same compound?
The TGI was greater than 100 µM.

What about the TGI [32] of the same compound?
The TGI was greater than 100 µM.

And the TGI [33]?
The TGI was greater than 100 µM.

What about the TGI [34] of the same compound?
Its TGI is greater than 100 µM.

And the GI50 [35]?
Its GI50 is 36 µM and 12 µM.

What about the TGI [35] of the same compound?
The TGI was > 100 µM and 31.1 µM.

And the TGI [36]?
The TGI was greater than 100 µM.

What about the TGI [37] of the same compound?
Its TGI is greater than 100 µM.

What about the TGI [38] of the same compound?
The TGI was greater than 100 µM.

And the TGI [39]?
The TGI was greater than 100 µM.

And the TGI [40]?
Its TGI is greater than 100 µM.

What about the TGI [41] of the same compound?
Its TGI is greater than 100 µM.

What about the TGI [42] of the same compound?
Its TGI is greater than 100 µM.

And the TGI [43]?
Its TGI is greater than 100 µM.

What about the TGI [44] of the same compound?
The TGI was greater than 100 µM.

And the GI50 [45]?
The GI50 was 13.4 µM and > 100 µM.

What about the TGI [45] of the same compound?
Its TGI is 55.5 µM and > 100 µM.

And the TGI [46]?
Its TGI is greater than 100 µM.

And the TGI [47]?
The TGI was greater than 100 µM.

And the TGI [48]?
The TGI was greater than 100 µM.

And the TGI [49]?
Its TGI is greater than 100 µM.

And the GI50 [50]?
Its GI50 is 49.9 µM and 21.9 µM.

What about the TGI [50] of the same compound?
The TGI was greater than 100 µM.

And the TGI [51]?
The TGI was greater than 100 µM.

And the TGI [52]?
Its TGI is greater than 100 µM.

And the TGI [53]?
Its TGI is greater than 100 µM.

And the TGI [54]?
The TGI was greater than 100 µM.

What about the TGI [55] of the same compound?
Its TGI is greater than 100 µM.

And the TGI [56]?
The TGI was greater than 100 µM.

What about the GI50 [57] of the same compound?
The GI50 was > 100 µM and 17 µM.

And the TGI [57]?
The TGI was greater than 100 µM.

What about the TGI [58] of the same compound?
Its TGI is greater than 100 µM.

What about the TGI [59] of the same compound?
The TGI was greater than 100 µM.
